Measured values: patent publication US10175221B2, “Detection device to identify markers dissolved in a liquid by means of a measurement of resistivity variation, detection method and use of marker and detection device” (SICPA HOLDING SA, priority 2014, dated 2019)

Assay: Solubility of the tested additives into diesel fuel

With `CCCCN(CCO)CCO` [N-butyldiethanolamine] the “Maximum evaluated concentration of marker soluble into diesel fuel” value (Table 1) was less than 100 ppm and the “Maximum evaluated concentration of marker soluble into diesel fuel” value (Table 2) was less than 100 ppm.
